Results taken from ChEMBL document CHEMBL3632469, “Discovery of dihydroquinazolinone derivatives as potent, selective, and CNS-penetrant M(1) and M(4) muscarinic acetylcholine receptors agonists” (Bioorg Med Chem Lett, 2015).

What was measured:
Format in all cases: functional, cell-based
[1] = target: T1, Muscarinic acetylcholine receptor M2 (Homo sapiens) (UniProt P08172); experiment: Agonist activity at human muscarinic M2 acetylcholine receptor expressed in CHO cells co-expressing Galpha16 assessed as calcium mobilization at 0.3 uM by FLIPR assay
T1 sequence (whole entry): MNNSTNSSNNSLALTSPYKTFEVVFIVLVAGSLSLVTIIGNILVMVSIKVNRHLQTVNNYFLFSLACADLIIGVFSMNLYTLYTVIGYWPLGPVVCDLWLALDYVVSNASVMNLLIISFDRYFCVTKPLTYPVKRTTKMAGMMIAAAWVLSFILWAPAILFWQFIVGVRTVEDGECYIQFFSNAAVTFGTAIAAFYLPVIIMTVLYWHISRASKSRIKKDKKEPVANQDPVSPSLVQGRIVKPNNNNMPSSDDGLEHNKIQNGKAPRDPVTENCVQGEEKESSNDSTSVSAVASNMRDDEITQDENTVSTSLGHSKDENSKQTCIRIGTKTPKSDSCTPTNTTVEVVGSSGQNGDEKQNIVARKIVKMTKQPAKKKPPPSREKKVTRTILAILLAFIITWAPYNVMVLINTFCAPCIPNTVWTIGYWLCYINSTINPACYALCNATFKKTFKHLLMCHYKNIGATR

[2] = target: T2, Muscarinic acetylcholine receptor M1 (Homo sapiens) (UniProt P11229); experiment: Agonist activity at human muscarinic M1 acetylcholine receptor expressed in CHO cells assessed as calcium mobilization at 0.3 uM by FLIPR assay
T2 sequence (whole entry): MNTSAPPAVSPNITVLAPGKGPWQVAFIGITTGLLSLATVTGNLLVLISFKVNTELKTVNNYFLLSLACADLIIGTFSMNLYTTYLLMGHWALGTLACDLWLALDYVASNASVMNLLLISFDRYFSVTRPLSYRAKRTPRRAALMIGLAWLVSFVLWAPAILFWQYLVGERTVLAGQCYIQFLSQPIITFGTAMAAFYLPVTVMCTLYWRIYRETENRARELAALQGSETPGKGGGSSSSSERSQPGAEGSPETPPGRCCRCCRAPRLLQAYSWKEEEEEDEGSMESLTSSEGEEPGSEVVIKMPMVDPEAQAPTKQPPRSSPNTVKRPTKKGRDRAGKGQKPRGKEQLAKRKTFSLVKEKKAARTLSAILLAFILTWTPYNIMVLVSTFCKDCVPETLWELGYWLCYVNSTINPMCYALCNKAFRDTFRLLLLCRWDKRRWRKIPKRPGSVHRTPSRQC

[3] = target: T3, Muscarinic acetylcholine receptor M4 (Homo sapiens) (UniProt P08173); experiment: Partial agonist activity at human muscarinic M4 acetylcholine receptor expressed in CHO cells co-expressing Galpha16 assessed as calcium mobilization at 0.3 uM by FLIPR assay
T3 sequence (whole entry): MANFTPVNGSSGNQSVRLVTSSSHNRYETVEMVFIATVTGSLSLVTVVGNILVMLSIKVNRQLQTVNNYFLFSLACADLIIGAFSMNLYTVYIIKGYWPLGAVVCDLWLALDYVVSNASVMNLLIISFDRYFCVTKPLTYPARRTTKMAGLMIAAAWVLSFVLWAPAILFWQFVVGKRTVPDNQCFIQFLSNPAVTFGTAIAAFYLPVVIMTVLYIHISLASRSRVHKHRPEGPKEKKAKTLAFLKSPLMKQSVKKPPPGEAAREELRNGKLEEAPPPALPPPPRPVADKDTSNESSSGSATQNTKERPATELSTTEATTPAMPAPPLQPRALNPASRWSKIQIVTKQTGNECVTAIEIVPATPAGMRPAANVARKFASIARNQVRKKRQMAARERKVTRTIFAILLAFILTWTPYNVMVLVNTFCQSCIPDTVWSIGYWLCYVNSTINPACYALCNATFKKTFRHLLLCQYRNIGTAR

[4] = target: Muscarinic acetylcholine receptor M3 (Homo sapiens) (UniProt P20309); experiment: Agonist activity at human muscarinic M3 acetylcholine receptor expressed in CHO cells assessed as calcium mobilization at 0.3 uM by FLIPR assay
[5] = target: T4, Muscarinic acetylcholine receptor M5 (Homo sapiens) (UniProt P08912); experiment: Agonist activity at human muscarinic M5 acetylcholine receptor expressed in CHO cells assessed as calcium mobilization at 10 uM by FLIPR assay
T4 sequence (whole entry): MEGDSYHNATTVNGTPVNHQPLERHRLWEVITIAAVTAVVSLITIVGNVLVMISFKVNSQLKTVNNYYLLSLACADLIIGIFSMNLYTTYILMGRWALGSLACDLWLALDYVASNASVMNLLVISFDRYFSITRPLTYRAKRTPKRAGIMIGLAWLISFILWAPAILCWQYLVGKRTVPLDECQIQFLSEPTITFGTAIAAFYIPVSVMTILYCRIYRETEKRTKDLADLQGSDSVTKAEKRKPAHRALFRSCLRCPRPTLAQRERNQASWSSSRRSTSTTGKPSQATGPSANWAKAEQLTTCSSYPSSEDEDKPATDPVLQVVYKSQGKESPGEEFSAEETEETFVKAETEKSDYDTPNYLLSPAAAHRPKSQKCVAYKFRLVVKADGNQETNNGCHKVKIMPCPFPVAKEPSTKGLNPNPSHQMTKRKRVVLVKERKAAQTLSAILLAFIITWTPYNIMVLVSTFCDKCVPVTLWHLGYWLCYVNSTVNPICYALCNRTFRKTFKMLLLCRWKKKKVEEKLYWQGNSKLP

[6] = target: T3, Muscarinic acetylcholine receptor M4 (Homo sapiens); experiment: Partial agonist activity at human muscarinic M4 acetylcholine receptor expressed in CHO cells co-expressing Galpha16 assessed as calcium mobilization at 30 uM by FLIPR assay

Sequence of Muscarinic acetylcholine receptor M3 (Homo sapiens) (P20309 whole entry, looked up): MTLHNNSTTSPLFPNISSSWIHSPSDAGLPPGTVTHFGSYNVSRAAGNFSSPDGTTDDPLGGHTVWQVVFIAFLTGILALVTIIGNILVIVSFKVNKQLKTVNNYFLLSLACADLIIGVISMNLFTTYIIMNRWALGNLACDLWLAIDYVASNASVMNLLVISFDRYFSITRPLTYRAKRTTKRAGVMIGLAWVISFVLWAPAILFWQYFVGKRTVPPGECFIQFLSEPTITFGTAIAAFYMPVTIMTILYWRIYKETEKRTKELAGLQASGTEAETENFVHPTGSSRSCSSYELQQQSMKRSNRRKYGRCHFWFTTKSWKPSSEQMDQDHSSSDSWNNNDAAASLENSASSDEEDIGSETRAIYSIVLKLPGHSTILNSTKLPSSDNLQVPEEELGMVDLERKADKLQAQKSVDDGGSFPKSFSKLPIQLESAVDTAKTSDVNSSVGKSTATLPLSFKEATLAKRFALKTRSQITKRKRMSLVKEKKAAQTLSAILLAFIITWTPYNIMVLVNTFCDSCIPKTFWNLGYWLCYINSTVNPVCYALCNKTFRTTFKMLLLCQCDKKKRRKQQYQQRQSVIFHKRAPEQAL

Activity [1] [%] | Activity [2] [%] | Activity [3] [%] | Activity [4] [%] | Activity [5] [%] | Activity [6] [%] | SMILES
17 | 105 | 115 | 1 |  |  | CCOC(=O)N1CCC(CN2CC(N3Cc4ccccc4NC3=O)C2)CC1
53 | 95 | 91 | 2 | 3 |  | CCOC(=O)N1CCC(CN2CC[C@@H](N3Cc4ccccc4NC3=O)C2)CC1
66 | 86 | 114 | 21 | 31 |  | CCOC(=O)N1CCC(N2CCC(N3Cc4ccccc4NC3=O)CC2)CC1
2 | 62 | 30 | 3 |  |  | CCOC(=O)N1CCC(CN2CC[C@H](N3Cc4ccccc4NC3=O)C2)CC1
12 | 87 | 64 | 1 |  | 65 | CCOC(=O)N1[C@@H]2CC[C@H]1C[C@H](CN1CC(N3Cc4ccccc4NC3=O)C1)C2
39 | 82 | 66 | 7 |  |  | CCOC(=O)N1CCC(CN2CCC(N3Cc4ccccc4NC3=O)CC2)CC1
